Results as given in patent US6037447A, “Glycopeptide compounds” (priority 1998, dated 2000).

What was measured:
[1] = system: Staphylococcus aureus SA1199; experiment: Standard broth micro-dilution MIC, Staphylococcus aureus SA1199; format: cell-based
Procedure: (§1) The minimal inhibitory concentrations (MICs) were determined using a standard broth micro-dilution assay.

[2] = system: Enterococcus faecalis 2041; experiment: Standard broth micro-dilution MIC, Enterococcus faecalis 2041; format: cell-based
Procedure: as §1

[3] = system: Staphylococcus aureus SA1199A; experiment: Standard broth micro-dilution MIC, Staphylococcus aureus SA1199A; format: cell-based
Procedure: as §1

Enterococcus faecium 180 = experiment: Standard broth micro-dilution MIC, Enterococcus faecium 180; format: cell-based
Procedure: as §1

[4] = system: Staphylococcus haemolyticus 415; experiment: Standard broth micro-dilution MIC, Staphylococcus haemolyticus 415; format: cell-based
Procedure: as §1

[5] = system: Staphylococcus aureus SA119913; experiment: Standard broth micro-dilution MIC, Staphylococcus aureus SA119913; format: cell-based
Procedure: as §1

[6] = system: vancomycin-resistant enterococci; experiment: In Vitro Activity Against Enterococci, vancomycin-resistant strains; format: cell-based; details: representative vancomycin-resistant enterococci (Enterococcus faecium and Enterococcus faecalis)
Procedure: as §1

[7] = system: Staphylococcus aureus S13E; format: cell-based
Procedure: as §1

[8] = system: Staphylococcus aureus 447; experiment: Standard broth micro-dilution MIC, Staphylococcus aureus 447; format: cell-based
Procedure: as §1

[9] = system: Staphylococcus aureus 491; experiment: Standard broth micro-dilution MIC, Staphylococcus aureus 491; format: cell-based
Procedure: as §1

[10] = system: Staphylococcus haemolyticus 105; experiment: Standard broth micro-dilution MIC, Staphylococcus haemolyticus 105; format: cell-based
Procedure: as §1

[11] = system: Staphylococcus aureus X400; experiment: Standard broth micro-dilution MIC, Staphylococcus aureus X400; format: cell-based
Procedure: as §1

[12] = system: Enterococcus faecium 180-1; experiment: Standard broth micro-dilution MIC, Enterococcus faecium 180-1; format: cell-based
Procedure: as §1

[13] = system: vancomycin-sensitive enterococci; experiment: In Vitro Activity Against Enterococci, vancomycin-sensitive strains; format: cell-based, Enterococcus faecium and Enterococcus faecalis; details: representative vancomycin-sensitive enterococci (Enterococcus faecium and Enterococcus faecalis)
Procedure: as §1

[14] = system: Streptococcus pyogenes C203; experiment: Standard broth micro-dilution MIC, Streptococcus pyogenes C203; format: cell-based
Procedure: as §1

[15] = system: Streptococcus pneumoniae P1; experiment: Standard broth micro-dilution MIC, Streptococcus pneumoniae P1; format: cell-based
Procedure: as §1

Escherichia coli EC14 = experiment: Standard broth micro-dilution MIC, Escherichia coli EC14; format: cell-based
Procedure: as §1

[16] = system: Enterococcus gallinarum 245; experiment: Standard broth micro-dilution MIC, Enterococcus gallinarum 245; format: cell-based
Procedure: as §1

[17] = system: Staphylococcus aureus 446; experiment: Standard broth micro-dilution MIC, Staphylococcus aureus 446; format: cell-based
Procedure: as §1

[18] = system: Haemophilus influenzae RD; experiment: Standard broth micro-dilution MIC, Haemophilus influenzae RD; format: cell-based
Procedure: as §1

[19] = system: Staphylococcus aureus 489; experiment: Standard broth micro-dilution MIC, Staphylococcus aureus 489; format: cell-based
Procedure: as §1

[20] = system: Staphylococcus aureus X778; experiment: Standard broth micro-dilution MIC, Staphylococcus aureus X778; format: cell-based
Procedure: as §1

[21] = system: Staphylococcus epidermidis 270; experiment: Standard broth micro-dilution MIC, Staphylococcus epidermidis 270; format: cell-based
Procedure: as §1

[22] = system: Enterococcus faecalis 276; experiment: Standard broth micro-dilution MIC, Enterococcus faecalis 276; format: cell-based
Procedure: as §1

Substance	MIC [1]	MIC [2]	MIC [3]	MIC (Enterococcus faecium 180)	MIC [4]	MIC [5]	mean geometric MIC, Vancomycin Resistant Strains [6]	MIC [7]	MIC [8]	MIC [9]	MIC [10]	MIC [11]	MIC [12]	mean geometric MIC, Vancomycin Sensitive Strains [13]	MIC [14]	MIC [15]	MIC (Escherichia coli EC14)	MIC [16]	MIC [17]	MIC [18]	also measured
1,3-propanediyl-bis-[(oxy-4,1-phenylene)-methylene]-bis-[A82846B] [Compound 14]	4 µg/mL	0.25 µg/mL	0.125 µg/mL	0.25 µg/mL	16 µg/mL	2 µg/mL	> 64 µg/mL	2 µg/mL	16 µg/mL	0.25 µg/mL	4 µg/mL	2 µg/mL	≤ 0.06 µg/mL	1.0 µg/mL	0.06 µg/mL	0.06 µg/mL	> 64 µg/mL	0.06 µg/mL	4 µg/mL	> 64 µg/mL	MIC [19]: 1 µg/mL; MIC [20]: 1 µg/mL; MIC [21]: 8 µg/mL; MIC [22]: 0.5 µg/mL
N^4 -(4-(12-(p-formylphenoxy)-n-dodecyloxy)benzyl)A82846B [Compound 48]	32 µg/mL	8 µg/mL	16 µg/mL	64 µg/mL	> 64 µg/mL	32 µg/mL	8.0 µg/mL	32 µg/mL	> 64 µg/mL	32 µg/mL	> 64 µg/mL	32 µg/mL	8 µg/mL	5.2 µg/mL	2 µg/mL	4 µg/mL	> 64 µg/mL	> 64 µg/mL	> 64 µg/mL	> 64 µg/mL	MIC [19]: 32 µg/mL; MIC [20]: 32 µg/mL; MIC [21]: > 64 µg/mL; MIC [22]: 32 µg/mL
